The experiment has as its target mutant BRAF enzyme (BRAF-V600E) (Homo sapiens (Human), UniProt P15056, V600E). Kind of experiment: RAF inhibition assay (TB-PMAP2K1 kit), BRAF-V600E. The following applies: FLUORESCEIN-MAP2K1 substrate, 60 min reaction. In kind it is biochemical.

Among the data in patent US20230312556A1, “ARYLAMIDE COMPOUND, PHARMACEUTICAL COMPOSITION COMPRISING SAME, AND PREPARATION METHOD THEREFOR AND USE THEREOF” (SICHUAN KELUN-BIOTECH BIOPHARMACEUTICAL CO., LTD., priority 2020, published 2023) are IC50 values, retold here.

Where only a bound is given, the exact number is not on record here.

Sequence of mutant BRAF enzyme (BRAF-V600E) (P15056 whole entry V600E): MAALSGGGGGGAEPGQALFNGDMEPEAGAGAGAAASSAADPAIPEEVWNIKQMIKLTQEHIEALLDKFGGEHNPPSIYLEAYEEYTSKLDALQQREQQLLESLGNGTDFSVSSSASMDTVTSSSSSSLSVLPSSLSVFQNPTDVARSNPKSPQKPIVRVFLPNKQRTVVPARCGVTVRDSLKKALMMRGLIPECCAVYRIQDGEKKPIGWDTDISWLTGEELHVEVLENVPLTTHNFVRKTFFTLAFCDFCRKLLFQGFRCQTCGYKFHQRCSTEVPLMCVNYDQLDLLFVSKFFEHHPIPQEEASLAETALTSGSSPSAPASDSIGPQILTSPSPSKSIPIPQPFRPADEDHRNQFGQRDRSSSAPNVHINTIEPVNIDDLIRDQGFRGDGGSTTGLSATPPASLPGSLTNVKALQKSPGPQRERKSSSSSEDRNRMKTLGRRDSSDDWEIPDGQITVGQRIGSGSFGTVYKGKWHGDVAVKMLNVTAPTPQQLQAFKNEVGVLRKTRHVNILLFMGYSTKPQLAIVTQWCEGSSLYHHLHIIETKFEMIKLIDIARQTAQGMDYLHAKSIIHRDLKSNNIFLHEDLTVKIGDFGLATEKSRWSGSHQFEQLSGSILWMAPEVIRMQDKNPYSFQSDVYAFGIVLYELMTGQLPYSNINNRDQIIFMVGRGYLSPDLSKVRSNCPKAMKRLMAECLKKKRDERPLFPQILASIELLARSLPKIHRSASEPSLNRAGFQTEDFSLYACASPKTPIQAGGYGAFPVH

With `Cc1ccc2c(Nc3cc(C#N)ccc3F)nccc2c1NC(=O)c1cccc2c(N)ncnc12` [Compound 80, 4-amino-N-(1-((5-cyano-2-fluorophenyl)amino)-6-methylisoquinolin-5-yl)quinazoline-8-carboxamide], the IC50 – broadly, the concentration that gives 50% inhibition – came to 13.5 ± 12.1 nM.

Consider `Cc1ccc2c(C(=O)c3ccccc3Cl)nccc2c1NC(=O)c1csc2c(N)ncnc12` [Compound 11, 4-amino-N-(1-(2-chlorobenzoyl)-6-methylisoquinolin-5-yl)thieno[3,2-d]pyrimidine-7-carboxamide], for which the IC50 is 33.1 ± 7.2 nM. To `Cc1ccc2c(C(O)c3ccccc3Cl)nccc2c1NC(=O)c1csc2c(N)ncnc12` (stereo not drawn) [Compound 14, 4-amino-N-(1-((2-chlorophenyl)(hydroxy)methyl)-6-methylisoquinolin-5-yl)thieno[3,2-d]pyrimidine-7-carboxamide] belongs 6.3 ± 0.7 nM.

The compound `Cc1ccc2c(Nc3cccc(Cl)c3)nccc2c1NC(=O)c1cnc2c(N)ncnn12` [Compound 12, 4-amino-N-(1-((3-chlorophenyl)amino)-6-methylisoquinolin-5-yl)imidazo[2,1-f][1,2,4]triazine-7-carboxamide] came in with an IC50 of 1.5 ± 0.2 nM. In the case of `Cc1ccc(Nc2nccc3c(NC(=O)c4cccc5c(N)ncnc45)c(C)ccc23)cc1` [Compound 65, 4-amino-N-(6-methyl-1-(p-tolylamino)isoquinolin-5-yl)quinazoline-8-carboxamide] it was 4.8 ± 0.78 nM; in that of `Cc1ccc2c(Nc3ccc(N(C)C)nc3)nccc2c1NC(=O)c1cccc2c(N)ncnc12` [Compound 59, 4-amino-N-(1-((6-(dimethylamino)pyridin-3-yl)amino)-6-methylisoquinolin-5-yl)quinazoline-8-carboxamide], 13 ± 1.35 nM; in that of `Cc1ccc2c(C(=O)c3ccc(Cl)cc3)nccc2c1NC(=O)c1csc2c(N)ncnc12` [Compound 21, 4-amino-N-(1-(4-chlorobenzoyl)-6-methylisoquinolin-5-yl)thieno[3,2-d]pyrimidine-7-carboxamide], 5.99 ± 1.82 nM.

`Cc1ccc2c(Cc3ccccc3Cl)nccc2c1NC(=O)c1cccc2c(N)ncnc12` [Compound 25, 4-amino-N-(1-(2-chlorobenzyl)-6-methylisoquinolin-5-yl)quinazoline-8-carboxamide] yielded an IC50 of 6.31 ± 0.99 nM. To `COc1ccc(Nc2nccc3c(NC(=O)c4cnc5c(N)ncnn45)c(C)ccc23)cc1Cl` [Compound 56, 4-amino-N-(1-((3-chloro-4-methoxyphenyl)amino)-6-methylisoquinolin-5-yl)imidazo[2,1-f][1,2,4]triazine-7-carboxamide] belongs 3.16 ± 0.67 nM; to `Cc1ccc2c(Nc3cccc(Cl)c3F)nccc2c1NC(=O)c1cccc2c(N)nccc12` [Comparative Example 1, 1-amino-N-(1-((3-chloro-2-fluorophenyl)amino)-6-methylisoquinolin-5-yl)isoquinoline-5-carboxamide, reference compound], over 1000 nM. Consider `Cc1ccc2c(Cc3ccc(Cl)cc3F)nccc2c1NC(=O)c1csc2c(N)ncnc12` [Compound 26, 4-amino-N-(1-(4-chloro-2-fluorobenzyl)-6-methylisoquinolin-5-yl)thieno[3,2-d]pyrimidine-7-carboxamide], for which inhibition was half-maximal at 9 ± 0.77 nM (IC50). As for `COc1ccc(Cc2nccc3c(NC(=O)c4csc5c(N)ncnc45)c(C)ccc23)cc1` [Compound 5, 4-amino-N-(1-(4-methoxybenzyl)-6-methylisoquinolin-5-yl)thieno[3,2-d]pyrimidine-7-carboxamide], it took 8.9 ± 1.03 nM to reach half-maximal inhibition (IC50). To `Cc1ccc2c(C(O)c3ccc(N(C)C)nc3)nccc2c1NC(=O)c1csc2c(N)ncnc12` (stereo not drawn) [Compound 37, 4-amino-N-(1-((6-(dimethylamino)pyridin-3-yl)(hydroxy)methyl)-6-methylisoquinolin-5-yl)thieno[3,2-d]pyrimidine-7-carboxamide] belongs 20.4 ± 3.03 nM; to `Cc1ccc2c(C(O)c3ccccc3Cl)nccc2c1NC(=O)c1cccc2c(N)ncnc12` (stereo not drawn) [Compound 24, 4-amino-N-(1-((2-chlorophenyl)(hydroxy)methyl)-6-methylisoquinolin-5-yl)quinazoline-8-carboxamide], 7.1 ± 0.7 nM. To `Cc1ccc2c(Nc3ccc(Cl)c(F)c3F)nccc2c1NC(=O)c1cnc2c(N)ncnn12` [Compound 70, 4-amino-N-(1-((4-chloro-2,3-difluorophenyl)amino)-6-methylisoquinolin-5-yl)imidazo[2,1-f][1,2,4]triazine-7-carboxamide] belongs 10.5 ± 1.72 nM; to `Cc1ccc2c(Nc3ccc(Cl)cc3F)nccc2c1NC(=O)c1cnc2c(N)ncnn12` [Compound 55, 4-amino-N-(1-((4-chloro-2-fluorophenyl)amino)-6-methylisoquinolin-5-yl)imidazo[2,1-f][1,2,4]triazine-7-carboxamide], 2.86 ± 0.24 nM. In the case of `Cc1ccc2c(Nc3ccc(C#N)cc3F)nccc2c1NC(=O)c1cccc2c(N)ncnc12` [Compound 78, 4-amino-N-(1-((4-cyano-2-fluorophenyl)amino)-6-methylisoquinolin-5-yl)quinazoline-8-carboxamide] it was 12.4 ± 0.94 nM. Take `Cc1ccc2c(Nc3ccc(CN(C)C)cc3)nccc2c1NC(=O)c1cccc2c(N)ncnc12` [Compound 40, 4-amino-N-(1-((4-((dimethylamino)methyl)phenyl)amino)-6-methylisoquinolin-5-yl)quinazoline-8-carboxamide]: it took 8.51 ± 1.02 nM to reach half-maximal inhibition (IC50). To `Cc1ccc2c(Nc3cccc(Cl)c3F)nccc2c1NC(=O)c1ccnc2c(N)ncnc12` [Compound 81, 4-amino-N-(1-((3-chloro-2-fluorophenyl)amino)-6-methylisoquinolin-5-yl)pyrido[3,2-d]pyrimidine-8-carboxamide] belongs 22 ± 3.69 nM; to `Cc1cc(C(=O)Nc2c(C)ccc3c(Nc4cccc(Cl)c4F)nccc23)c2ncnc(N)c2c1` [Compound 45, 4-amino-N-(1-((3-chloro-2-fluorophenyl)amino)-6-methylisoquinolin-5-yl)-6-methylquinazoline-8-carboxamide], 18.2 ± 7.52 nM. To `COc1ccc(F)c(Nc2nccc3c(NC(=O)c4cccc5c(N)ncnc45)c(C)ccc23)c1` [Compound 87, 4-amino-N-(1-((2-fluoro-5-methoxyphenyl)amino)-6-methylisoquinolin-5-yl)quinazoline-8-carboxamide] belongs 4.64 ± 0.7 nM; to `Cc1ccc2c(Nc3cccc(C#N)c3F)nccc2c1NC(=O)c1cccc2c(N)ncnc12` [Compound 83, 4-amino-N-(1-((3-cyano-2-fluorophenyl)amino)-6-methylisoquinolin-5-yl)quinazoline-8-carboxamide], 15.1 ± 1.62 nM; to `COc1ccc(Nc2nccc3c(NC(=O)c4cnc5c(N)ncnn45)c(C)ccc23)c(F)c1` [Compound 61, 4-amino-N-(1-((2-fluoro-4-methoxyphenyl)amino)-6-methylisoquinolin-5-yl)imidazo[2,1-f][1,2,4]triazine-7-carboxamide], 2.88 ± 0.74 nM. The compound `Cc1ccc2c(Nc3cccc(Cl)c3F)nccc2c1NC(=O)c1cnc2c(N)ncnn12` [Compound 30, 4-amino-N-(1-((3-chloro-2-fluorophenyl)amino)-6-methylisoquinolin-5-yl)imidazo[2,1-f][1,2,4]triazine-7-carboxamide] displayed an IC50 of 4.1 ± 0.2 nM. To `Cc1ccc2c(Nc3ccccc3F)nccc2c1NC(=O)c1cnc2c(N)ncnn12` [Compound 44, 4-amino-N-(1-((2-fluorophenyl)amino)-6-methylisoquinolin-5-yl)imidazo[2,1-f][1,2,4]triazine-7-carboxamide] belongs 0.88 ± 0.15 nM.

`Cc1ccc2c(C(O)c3ccc(F)cc3)nccc2c1NC(=O)c1csc2c(N)ncnc12` (stereo not drawn) [Compound 15, 4-amino-N-(1-((4-fluorophenyl)(hydroxy)methyl)-6-methylisoquinolin-5-yl)thieno[3,2-d]pyrimidine-7-carboxamide] gave an IC50 of 11.1 ± 1.5 nM.

`Cc1ccc2c(Nc3cccc(OCCN4CCOCC4)c3F)nccc2c1NC(=O)c1cccc2c(N)ncnc12` [Compound 98, 4-amino-N-(1-((2-fluoro-3-(2-morpholinoethoxy)phenyl)amino)-6-methylisoquinolin-5-yl)quinazoline-8-carboxamide] had an IC50 of 21.9 ± 6.38 nM. `Cc1ccc2c(Cc3ccc(Cl)cc3)nccc2c1NC(=O)c1csc2c(N)ncnc12` [Compound 18, 4-amino-N-(1-(4-chlorobenzyl)-6-methylisoquinolin-5-yl)thieno[3,2-d]pyrimidine-7-carboxamide] registered an IC50 of 8.33 ± 1.25 nM.

Regarding `Cc1ccc2c(Cc3ccc(C(F)(F)F)cc3)nccc2c1NC(=O)c1csc2c(N)ncnc12` [Compound 34, 4-amino-N-(6-methyl-1-(4-(trifluoromethyl)benzyl)isoquinolin-5-yl)thieno[3,2-d]pyrimidine-7-carboxamide], it took 26.9 ± 2.58 nM to reach half-maximal inhibition (IC50). In the case of `CCOc1ccc(Nc2nccc3c(NC(=O)c4cccc5c(N)ncnc45)c(C)ccc23)c(F)c1` [Compound 74, 4-amino-N-(1-((4-ethoxy-2-fluorophenyl)amino)-6-methylisoquinolin-5-yl)quinazoline-8-carboxamide] it was 13.8 ± 0.9 nM; in that of `Cc1ccc2c(Cc3ccc(F)cc3)nccc2c1NC(=O)c1csc2c(N)ncnc12` [Compound 13, 4-amino-N-(1-(4-fluorobenzyl)-6-methylisoquinolin-5-yl)thieno[3,2-d]pyrimidine-7-carboxamide], 32.8 ± 0.6 nM. To `Cc1ccc2c(Nc3cccc(Cl)c3F)nccc2c1NC(=O)c1cc(O)cc2c(N)ncnc12` [Compound 76, 4-amino-N-(1-((3-chloro-2-fluorophenyl)amino)-6-methylisoquinolin-5-yl)-6-hydroxyquinazoline-8-carboxamide] belongs 29.3 ± 3.32 nM; to `Cc1ccc2c(Nc3cccc(Cl)c3F)nccc2c1NC(=O)c1cc(N2CCOCC2)cc2c(N)ncnc12` [Compound 53, 4-amino-N-(1-((3-chloro-2-fluorophenyl)amino)-6-methylisoquinolin-5-yl)-6-morpholinoquinazoline-8-carboxamide], 17.3 ± 3.43 nM.
